Assay results from the NIST ThermoML archive (doi:10.1021/je500381c).

Test: xn = mol fraction of the nth substance listed
Settings: 100 kPa, Liquid; for mass density: Vibrating tube method

OCC1CCCCC1 [cyclohexylmethanol] + CC12CC3CC(C1)CC(C)(C3)C2
Settings | mass density, 313.15 K [kg/m3] | mass density, 318.15 K [kg/m3] | mass density, 323.15 K [kg/m3] | mass density, 328.15 K [kg/m3] | mass density, 333.15 K [kg/m3] | viscosity, 313.15 K [mPa·s] | viscosity, 318.15 K [mPa·s] | viscosity, 323.15 K [mPa·s] | viscosity, 328.15 K [mPa·s] | viscosity, 333.15 K [mPa·s]
x1 = 0.1027 | – | 884.98 | 881.29 | 877.59 | 873.88 | 2.56 | 2.305 | 2.085 | 1.894 | 1.727
x1 = 0.1995 | – | 886.71 | 882.99 | 879.24 | 875.48 | 2.841 | 2.539 | 2.28 | 2.057 | 2.105
x1 = 0.3012 | – | 888.75 | 885.01 | 881.25 | 877.47 | 3.229 | 2.859 | 2.546 | 2.279 | 2.048
x1 = 0.4004 | – | 891.29 | 887.53 | 883.75 | 879.94 | 3.764 | 3.299 | 2.911 | 2.58 | 2.3
x1 = 0.4973 | – | 893.98 | 890.21 | 886.41 | 882.58 | 4.377 | 3.787 | 3.302 | 2.898 | 2.56
x1 = 0.6008 | 900.87 | 897.11 | 893.33 | 889.51 | 885.67 | 5.311 | 4.529 | 3.896 | 3.375 | 2.946
x1 = 0.7002 | 904.09 | 900.37 | 896.61 | 892.81 | 888.98 | 6.578 | 5.508 | 4.604 | 3.992 | 3.443
x1 = 0.7892 | 907.87 | 904.14 | 900.37 | 896.56 | 892.71 | 8.883 | 7.34 | 6.145 | 5.076 | 4.253
x1 = 0.9 | 911.45 | 907.74 | 904 | 900.21 | 896.38 | 11.3 | 9.262 | 7.642 | 6.342 | 5.984
x1 = 1 | 915.53 | 911.88 | 908.19 | 904.45 | 900.67 | 14.09 | 11.43 | 9.354 | 7.766 | 6.462
